Laboratory results from ChEMBL document CHEMBL6120974, “Hydrazide-Based Class I Selective HDAC Inhibitors Completely Reverse Chemoresistance Synergistically in Platinum-Resistant Solid Cancer Cells” (J Med Chem, 2024).
The source made the active and inactive calls. No cut-off for these calls is given here.

Key:
[1] = system: MV4-11; experiment: cells; details: Homo sapiens, MV4-11, 72 h
Description: Cytotoxicity against human MV4-11 cells harboring wild type p53 assessed as cell viability incubated for 72 hrs by MTT assay

[2] = system: A2780; experiment: Downregulation of survivin expression in human A2780 cells at 0.75 uM incubated for 48 hrs by Immunoblotting analysis; format: functional, cell-based
[3] = system: CAL-27; experiment: Induction of apoptosis in human CAL-27 cells assessed as caspase-3/7 activation at 0.316 uM incubated for 48 hrs by capase3/7 green dye based analysis; format: functional, cell-based
[4] = system: A2780; experiment: Downregulation of survivin expression in human A2780 cells at 0.75 uM in presence of cisplatin at 3.5 uM preincubated with compound for 48 hrs prior to addition of cisplatin and measured after 24 hrs by Immunoblotting analysis; format: functional, cell-based; details: time 72.0 hrs
[5] = system: A2780; experiment: Induction of apoptosis in human A2780 cells assessed as decrease in Bcl-2 protein level at 0.75 uM incubated for 48 hrs by Immunoblotting analysis; format: functional, cell-based
[6] = target: Histone deacetylase 4 (Homo sapiens, UniProt P56524); experiment: Inhibition of recombinant HDAC4 (unknown origin) using Bos-Lys(TFA)-AMC as substrate preincubated with compound for 5 mins and measured after 90 mins by NOVOstar microplate reader analysis
Sequence of Histone deacetylase 4 (P56524 whole entry): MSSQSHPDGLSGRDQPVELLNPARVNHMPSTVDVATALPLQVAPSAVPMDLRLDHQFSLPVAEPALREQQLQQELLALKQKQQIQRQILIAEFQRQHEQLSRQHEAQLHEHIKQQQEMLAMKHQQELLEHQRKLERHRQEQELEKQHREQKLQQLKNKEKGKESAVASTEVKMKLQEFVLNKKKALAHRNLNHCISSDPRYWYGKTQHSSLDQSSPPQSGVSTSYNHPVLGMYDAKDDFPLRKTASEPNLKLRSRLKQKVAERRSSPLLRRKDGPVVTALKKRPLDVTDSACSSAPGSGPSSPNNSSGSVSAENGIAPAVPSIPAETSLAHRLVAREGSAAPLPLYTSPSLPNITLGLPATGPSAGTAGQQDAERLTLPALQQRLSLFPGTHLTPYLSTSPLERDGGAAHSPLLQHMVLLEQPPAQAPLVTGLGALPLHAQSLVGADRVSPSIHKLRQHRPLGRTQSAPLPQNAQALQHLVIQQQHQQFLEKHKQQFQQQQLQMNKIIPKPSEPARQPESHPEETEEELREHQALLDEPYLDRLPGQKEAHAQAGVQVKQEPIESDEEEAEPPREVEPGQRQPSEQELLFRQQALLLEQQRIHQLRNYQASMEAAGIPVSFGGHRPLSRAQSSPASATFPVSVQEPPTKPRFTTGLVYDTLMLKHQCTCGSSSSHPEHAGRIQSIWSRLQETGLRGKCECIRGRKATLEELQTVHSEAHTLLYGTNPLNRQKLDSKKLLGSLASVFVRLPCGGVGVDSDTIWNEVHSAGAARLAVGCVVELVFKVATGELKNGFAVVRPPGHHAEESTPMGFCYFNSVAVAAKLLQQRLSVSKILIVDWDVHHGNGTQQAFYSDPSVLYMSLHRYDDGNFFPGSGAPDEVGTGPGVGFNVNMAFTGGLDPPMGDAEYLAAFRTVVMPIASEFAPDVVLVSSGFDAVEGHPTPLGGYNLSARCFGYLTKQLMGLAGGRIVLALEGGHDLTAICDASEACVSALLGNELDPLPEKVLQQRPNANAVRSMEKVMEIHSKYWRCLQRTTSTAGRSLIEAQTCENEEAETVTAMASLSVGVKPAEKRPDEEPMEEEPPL

[7] = cells; details: Homo sapiens, Cal27CisR, 72 h
Description: Cytotoxicity against cisplatin resistant human Cal27CisR cells assessed as reduction in cell viability incubated for 72 hrs by MTT assay

[8] = cells; details: Homo sapiens, A2780cisR
Description: Inhibition of class I/6 HDAC (unknown origin) in cisplatin resistant human A2780 cisR cells using Boc-Lys(epsilon-Ac)-AMC as substrate preincubated with compound for 18 hrs followed by substrate addition and measured after 3 hrs by NOVOstar microplate reader analysis

[9] = system: A2780; experiment: Induction of apoptosis in human A2780 cells assessed as increase in caspase 3/7 activation at 0.75 uM in presence of cisplatin preincubated with compound for 48 hrs co-treated with cisplatin and measured after 24 hrs by capase3/7 green dye based analysis; format: functional, cell-based; details: time 72.0 hrs
[10] = system: CAL-27; experiment: Induction of apoptosis in human CAL-27 cells assessed as apoptotic nuclei at sub-G1 phase at 0.316 uM incubated for 48 hrs by flow cytometric analysis; format: functional, cell-based
[11] = system: A2780; experiment: Induction of apoptosis in human A2780 cells assessed as decrease in Bcl-2 protein level at 0.75 uM in presence of cisplatin at 3.5 uM preincubated with compound for 48 hrs prior to addition of cisplatin and measured after 24 hrs by Immunoblotting analysis; format: functional, cell-based; details: time 72.0 hrs
[12] = cells; details: Homo sapiens, Cal27CisR
Description: Inhibition of class IIa/8 HDAC (unknown origin) in cisplatin resistant human Cal27CisR cells using Boc-Lys(TFA)-AMC as substrate preincubated with compound for 18 hrs followed by substrate addition and measured after 3 hrs by NOVOstar microplate reader analysis

[13] = system: A2780cisR; experiment: Induction of apoptosis in cisplatin resistant human A2780 cisR cells assessed as increase in BIM expression at 2 uM incubated for 48 hrs by Immunoblotting analysis; format: functional, cell-based
[14] = system: A2780; experiment: cells; details: Homo sapiens, A2780, 72 h
Description: Cytotoxicity against human A2780 cells assessed as reduction in cell viability incubated for 72 hrs by MTT assay

[15] = system: Cal27CisR; experiment: Induction of apoptosis in cisplatin resistant human Cal27CisR cells assessed as caspase-3/7 activation at 0.316 uM incubated for 48 hrs by capase3/7 green dye based analysis; format: functional, cell-based
[16] = system: CAL-27; experiment: Induction of apoptosis in human CAL-27 cells assessed as increase in apoptotic nuclei at sub-G1 phase at 0.316 uM in presence of cisplatin at 3 uM preincubated with compound for 48 hrs prior to addition of cisplatin and measured after 24 hrs by flow cytometric analysis; format: functional, cell-based; details: time 72.0 hrs
[17] = system: CAL-27; experiment: Induction of apoptosis in human CAL-27 cells assessed as increase in Bcl-2 protein level at 0.316 uM in presence of cisplatin at 3 uM preincubated with compound for 48 hrs prior to addition of cisplatin and measured after 24 hrs by Immunoblotting analysis; format: functional, cell-based
[18] = system: Cal27CisR; experiment: Induction of apoptosis in cisplatin resistant human Cal27CisR cells assessed as increase in BIM expression at 0.316 uM in presence of cisplatin at 16.5 uM preincubated with compound for 48 hrs prior to addition of cisplatin and measured after 24 hrs by Immunoblotting analysis; format: functional, cell-based; details: time 72.0 hrs
[19] = system: Cal27CisR; experiment: Induction of apoptosis in cisplatin resistant human Cal27CisR cells assessed as increase in Bcl-2 protein level at 0.316 uM incubated for 48 hrs by Immunoblotting analysis; format: functional, cell-based
[20] = system: A2780; experiment: Induction of apoptosis in human A2780 cells assessed as increase in apoptotic nuclei at sub-G1 phase at 2 uM in presence of cisplatin at 16 uM preincubated with compound for 48 hrs prior to addition of cisplatin and measured after 24 hrs by flow cytometric analysis; format: functional, cell-based; details: time 72.0 hrs
[21] = system: A2780; experiment: Induction of apoptosis in human A2780 cells assessed as increase in BIM expression at 0.75 uM in presence of cisplatin at 3.5 uM preincubated with compound for 48 hrs prior to addition of cisplatin and measured after 24 hrs by Immunoblotting analysis; format: functional, cell-based; details: time 72.0 hrs
[22] = cells; details: Homo sapiens, Cal27CisR; remark: listed apart in the source
Description: Inhibition of class I/6 HDAC (unknown origin) in cisplatin resistant human Cal27CisR cells using Boc-Lys(epsilon-Ac)-AMC as substrate preincubated with compound for 18 hrs followed by substrate addition and measured after 3 hrs by NOVOstar microplate reader analysis

[23] = system: Cal27CisR; experiment: Induction of cell cycle arrest in cisplatin resistant human Cal27CisR cells assessed as increase in p21 expression at 0.316 uM incubated for 48 hrs by Western blotting analysis; format: functional, cell-based
[24] = system: Cal27CisR; experiment: Induction of DNA damage in cisplatin resistant human Cal27CisR cells assessed as increase in gammaH2AX formation at 0.316 uM in presence of cisplatin at 16.5 uM pretreated with compound for 48 hrs prior to addition of cisplatin and measured after 24 hrs by Hoechst 33342 staining based Immunofluorescence analysis; format: functional, cell-based; details: time 72.0 hrs

Row | Structure (SMILES) | IC50 [1] [nM] | Activity [2] | Activity [3] | Activity [4] | Activity [5] | IC50 [6] [nM] | IC50 [7] [nM] | IC50 [8] [nM] | Activity [9] | Activity [10] | Activity [11] | IC50 [12] [nM] | Activity [13] | IC50 [14] [nM] | Activity [15] | Activity [16] | Activity [17] | Activity [18] | Activity [19] | Activity [20] | further results
1 | CCCCNNC(=O)c1ccc(CN(CC(=O)NCc2ccccc2)C(=O)c2ccc(N(C)C)cc2)cc1 | 212 | Active | Active; Low Caspase Activation Observed | Active | Active | > 10000 | 968 | 268 | Active | Active; Moderate Percentage Of Apoptotic Nuclei Observed | Active | 2220 | Active | 894 | Active; Low Activation Observed | Active | Not active; Slight Increase Observed | Active | Not active; Slight Increase Observed | inactive | Activity [21]: inactive; IC50 [22]: 156 nM; Activity [23]: Active; Activity [24]: Active
2 | CCCNNC(=O)c1ccc(CN(CC(=O)NCc2ccccc2)C(=O)c2ccc(N(C)C)cc2)cc1 | 194 | Active | Active; Low Caspase Activation Observed | Active | Active | > 10000 | 801 | 295 | Active | Active; Moderate Percentage Of Apoptotic Nuclei Observed | Active | 2320 | Active | 1130 | Active; Low Activation Observed | Active | Not active; Slight Increase Observed | Active | Not active; Slight Increase Observed | inactive | Activity [21]: inactive; IC50 [22]: 155 nM; Activity [23]: Active; Activity [24]: Active
